Measurements taken from US8211935B2, “Heterocyclic derivatives for modulation of calcium channels” (Vertex Pharmaceuticals Incorporated, priority 2004, dated 2012).

These compounds were tested against T1, CaV2.2 (Homo sapiens, UniProt Q00975) (assay: VIPR optical membrane potential assay with electrical stimulation). Details: not given.
T1 construct: expressed in transfected cells; host or cells: HEK293
Format: cell-based
Protocol: Antagonist properties of test compounds were assessed as follows. Cells expressing the CaV of interest were placed into microtiter plates. After an incubation period, the cells were stained with fluorescent dyes sensitive to the transmembrane potential. The test compounds were added to the microtiter plate. The cells were stimulated with electrical means to evoke a CaV dependent membrane potential change from unblocked channels, which was detected and measured with trans-membrane potential-sensitive dyes. Antagonists were detected as a decreased membrane potential response to the stimulus.
VIPR® Optical Membrane Potential Assay Method with Electrical Stimulation
The following is an example of how CaV2.2 inhibition activity is measured using the optical membrane potential method. Other subtypes are performed in an analogous mode in a cell line expressing the CaV of interest.
HEK293 cells stably expressing CaV2.2 are plated into 96-well microtiter plates. After an appropriate incubation period, the cells are stained with the voltage sensitive dyes CC2-DMPE/DiSBAC2(3) as follows.
2×CC2-DMPE=20 μM CC2-DMPE: 10 mM CC2-DMPE is vortexed with an equivalent volume of 10% Pluronic, followed by vortexing in required amount of HBSS containing 10 mM HEPES. Each cell plate will require 5 mL of 2×CC2-DMPE. 50 μL of 2×CC2-DMPE is added to wells containing washed cells, resulting in a 10 μM final staining concentration. The cells are stained for 30 minutes in the dark at RT.
Vortex in required amount of Bath X with beta-cyclodextrin. Each 96 well cell plate will require 5 ml of 2×CC2DMPE. Wash plate with ELx405 with Bath X, leaving a residual volume of 50 μL/well. Add 50 μL of 2×CC2DMPE & DISBAC6(3) to each well. Stain for 30 minutes in the dark at RT.
Allow solution to sit for 10 minutes. Slowly mix in 370 mM BaCl2. This solution can be used to solvate compound plates. Note that compound plates are made at 1.5× drug concentration and not the usual 2×. Wash CC2 stained plate, again, leaving residual volume of 50 pt. Add 100 uL/well of the AY17 solution. Stain for 15 minutes in the dark at RT. Run plate on the optical reader.
The instrument comprises a microtiter plate handler, an optical system for exciting the coumarin dye while simultaneously recording the coumarin and oxonol emissions, a waveform generator, a current- or voltage-controlled amplifier, and a device for inserting electrodes in well. Under integrated computer control, this instrument passes user-programmed electrical stimulus protocols to cells within the wells of the microtiter plate.
Insert or use electrodes into each well to be assayed.
Use the current-controlled amplifier to deliver stimulation wave pulses for 3-5 s. Two seconds of pre-stimulus recording are performed to obtain the un-stimulated intensities. Five seconds of post-stimulation recording are performed to examine the relaxation to the resting state.
Data are analyzed and reported as normalized ratios of background-subtracted emission intensities measured in the 460 nm and 580 nm channels. Background intensities are then subtracted from each assay channel. Background intensities are obtained by measuring the emission intensities during the same time periods from identically treated assay wells in which there are no cells. The response as a function of time is then reported as the ratios obtained using the following formula: […]
The data is further reduced by calculating the initial (Ri) and final (Rf) ratios. These are the average ratio values during part or all of the pre-stimulation period, and during sample points during the stimulation period. The response to the stimulus R=Rf/Ri is then calculated.
Control responses are obtained by performing assays in the presence of a compound with the desired properties (positive control), such as mibefradil, and in the absence of pharmacological agents (negative control). Responses to the negative (N) and positive (P) controls are calculated as above.

T1 sequence (Q00975 whole entry): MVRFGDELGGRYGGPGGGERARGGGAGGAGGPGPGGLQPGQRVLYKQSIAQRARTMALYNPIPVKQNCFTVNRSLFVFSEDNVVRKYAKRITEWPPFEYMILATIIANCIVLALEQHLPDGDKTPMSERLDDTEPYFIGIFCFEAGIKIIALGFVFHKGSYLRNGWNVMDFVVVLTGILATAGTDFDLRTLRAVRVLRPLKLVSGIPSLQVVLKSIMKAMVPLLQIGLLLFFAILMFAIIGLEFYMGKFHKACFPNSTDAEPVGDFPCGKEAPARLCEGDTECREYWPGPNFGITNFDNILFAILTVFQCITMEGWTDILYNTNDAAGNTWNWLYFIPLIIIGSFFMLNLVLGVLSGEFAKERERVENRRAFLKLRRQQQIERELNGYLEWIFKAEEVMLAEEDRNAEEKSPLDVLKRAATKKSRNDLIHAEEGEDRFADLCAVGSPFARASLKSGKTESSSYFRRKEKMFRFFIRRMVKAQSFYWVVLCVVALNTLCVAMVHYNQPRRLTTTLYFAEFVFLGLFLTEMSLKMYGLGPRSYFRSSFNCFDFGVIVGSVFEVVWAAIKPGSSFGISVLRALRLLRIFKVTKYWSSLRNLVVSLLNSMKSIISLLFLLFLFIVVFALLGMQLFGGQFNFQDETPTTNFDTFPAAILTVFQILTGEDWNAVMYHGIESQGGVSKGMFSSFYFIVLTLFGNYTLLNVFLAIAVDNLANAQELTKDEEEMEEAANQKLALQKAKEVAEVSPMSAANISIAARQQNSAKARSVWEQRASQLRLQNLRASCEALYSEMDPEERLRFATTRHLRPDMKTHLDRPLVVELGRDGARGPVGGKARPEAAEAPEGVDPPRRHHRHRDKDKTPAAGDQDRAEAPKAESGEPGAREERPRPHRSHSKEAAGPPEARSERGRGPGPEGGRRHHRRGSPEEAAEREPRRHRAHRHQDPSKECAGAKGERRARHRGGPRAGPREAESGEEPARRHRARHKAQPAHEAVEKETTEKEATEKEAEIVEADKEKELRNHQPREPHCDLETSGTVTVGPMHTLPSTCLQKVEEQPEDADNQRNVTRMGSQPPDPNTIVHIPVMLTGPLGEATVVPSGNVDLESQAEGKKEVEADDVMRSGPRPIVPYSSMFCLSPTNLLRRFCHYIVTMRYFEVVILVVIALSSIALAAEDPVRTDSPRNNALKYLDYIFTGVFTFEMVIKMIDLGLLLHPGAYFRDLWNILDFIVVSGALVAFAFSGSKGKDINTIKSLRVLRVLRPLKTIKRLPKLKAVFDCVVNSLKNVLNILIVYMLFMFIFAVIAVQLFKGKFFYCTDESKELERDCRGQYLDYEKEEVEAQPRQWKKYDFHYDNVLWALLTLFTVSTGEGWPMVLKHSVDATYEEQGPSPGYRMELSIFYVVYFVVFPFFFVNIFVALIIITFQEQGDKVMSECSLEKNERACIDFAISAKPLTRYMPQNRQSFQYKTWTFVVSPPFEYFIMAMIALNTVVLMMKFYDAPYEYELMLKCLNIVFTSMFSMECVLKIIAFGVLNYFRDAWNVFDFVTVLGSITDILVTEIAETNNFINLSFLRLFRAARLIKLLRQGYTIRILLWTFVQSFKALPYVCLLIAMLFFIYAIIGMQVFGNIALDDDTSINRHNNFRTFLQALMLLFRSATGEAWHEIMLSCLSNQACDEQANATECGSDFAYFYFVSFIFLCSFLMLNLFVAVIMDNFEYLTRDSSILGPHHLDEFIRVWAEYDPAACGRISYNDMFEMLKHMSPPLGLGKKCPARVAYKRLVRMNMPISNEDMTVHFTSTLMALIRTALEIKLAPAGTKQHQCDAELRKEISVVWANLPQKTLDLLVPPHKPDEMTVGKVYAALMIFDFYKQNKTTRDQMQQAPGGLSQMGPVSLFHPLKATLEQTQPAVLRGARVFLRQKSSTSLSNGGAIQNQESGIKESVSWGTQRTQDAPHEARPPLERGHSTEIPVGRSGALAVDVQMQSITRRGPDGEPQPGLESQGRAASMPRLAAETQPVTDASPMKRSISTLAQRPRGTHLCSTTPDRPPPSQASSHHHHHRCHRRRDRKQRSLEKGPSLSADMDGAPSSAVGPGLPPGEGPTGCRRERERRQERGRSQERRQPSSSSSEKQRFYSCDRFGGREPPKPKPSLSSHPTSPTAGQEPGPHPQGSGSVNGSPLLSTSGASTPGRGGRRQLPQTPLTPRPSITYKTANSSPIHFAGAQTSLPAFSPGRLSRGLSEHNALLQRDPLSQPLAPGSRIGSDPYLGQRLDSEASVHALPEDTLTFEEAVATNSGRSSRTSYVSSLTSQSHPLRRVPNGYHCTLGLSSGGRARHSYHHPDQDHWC
T1 sequence (P54284 whole entry partner): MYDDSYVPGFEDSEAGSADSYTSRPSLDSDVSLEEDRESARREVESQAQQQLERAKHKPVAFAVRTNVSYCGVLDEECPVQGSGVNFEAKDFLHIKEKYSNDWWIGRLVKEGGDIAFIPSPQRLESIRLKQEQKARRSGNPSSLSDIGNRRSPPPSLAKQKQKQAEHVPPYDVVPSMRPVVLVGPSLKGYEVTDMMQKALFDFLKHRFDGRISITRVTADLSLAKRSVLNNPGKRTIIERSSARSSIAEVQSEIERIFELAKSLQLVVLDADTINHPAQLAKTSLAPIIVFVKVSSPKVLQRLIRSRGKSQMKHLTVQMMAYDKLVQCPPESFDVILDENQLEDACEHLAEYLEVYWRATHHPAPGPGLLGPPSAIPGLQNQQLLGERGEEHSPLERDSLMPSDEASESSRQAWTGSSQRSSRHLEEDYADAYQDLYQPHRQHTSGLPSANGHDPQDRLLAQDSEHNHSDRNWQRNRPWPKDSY
T1 sequence (P54289 25-946 partner limits assumed): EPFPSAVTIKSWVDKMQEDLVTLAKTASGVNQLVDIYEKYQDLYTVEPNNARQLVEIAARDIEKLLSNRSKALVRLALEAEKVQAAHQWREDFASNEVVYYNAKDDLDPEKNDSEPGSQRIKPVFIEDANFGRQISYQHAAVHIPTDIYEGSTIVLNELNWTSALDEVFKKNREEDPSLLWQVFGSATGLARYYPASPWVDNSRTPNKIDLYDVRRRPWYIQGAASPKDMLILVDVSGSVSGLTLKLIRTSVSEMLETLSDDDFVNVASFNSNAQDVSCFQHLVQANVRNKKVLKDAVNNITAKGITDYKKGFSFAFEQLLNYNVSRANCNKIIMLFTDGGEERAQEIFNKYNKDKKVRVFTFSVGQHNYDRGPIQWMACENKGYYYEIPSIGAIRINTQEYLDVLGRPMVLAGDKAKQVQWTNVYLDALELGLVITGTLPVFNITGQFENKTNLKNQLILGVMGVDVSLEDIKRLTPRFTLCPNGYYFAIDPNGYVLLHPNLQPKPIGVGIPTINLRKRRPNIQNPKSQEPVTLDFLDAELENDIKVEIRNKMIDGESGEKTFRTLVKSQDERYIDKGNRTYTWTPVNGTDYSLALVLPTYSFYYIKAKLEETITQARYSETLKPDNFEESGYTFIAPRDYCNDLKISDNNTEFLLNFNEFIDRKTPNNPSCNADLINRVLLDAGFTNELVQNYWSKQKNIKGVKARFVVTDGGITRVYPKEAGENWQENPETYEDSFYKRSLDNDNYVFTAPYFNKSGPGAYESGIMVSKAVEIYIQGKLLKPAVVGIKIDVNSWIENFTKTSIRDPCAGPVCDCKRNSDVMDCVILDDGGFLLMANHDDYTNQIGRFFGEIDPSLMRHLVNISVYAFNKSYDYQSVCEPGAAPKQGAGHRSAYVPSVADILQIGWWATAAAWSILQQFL
T1 sequence (P54289 947-1103 partner limits assumed): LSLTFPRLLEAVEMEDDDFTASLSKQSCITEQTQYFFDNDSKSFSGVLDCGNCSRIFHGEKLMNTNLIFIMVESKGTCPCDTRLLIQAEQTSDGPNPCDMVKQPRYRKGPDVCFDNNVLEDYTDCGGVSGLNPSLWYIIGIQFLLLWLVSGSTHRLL

Cc1c(C(=O)N(C)Cc2ccccc2)oc2ccc(S(=O)(=O)N3CC(C)CC(C)C3)cc12 (stereo not shown) [compound 89] and CC1CC(C)CN(S(=O)(=O)c2ccc3[nH]c(C(=O)N4CCC5(CC4)OCCO5)cc3c2)C1 (stereo not shown) [compound 344] cannot be ordered by IC50: < 5 µM for the first, < 5 µM for the second.

Cc1c(C(=O)N2CCC3(CC2)OCCO3)oc2ccc(S(=O)(=O)N3CCOCC3)cc12 [compound 432] was tested, and the IC50 was < 20 µM.

Same assay, conditions: Table 3, biological assay data; read-out: IC50

Cc1c(C(=O)NCCN2CCOCC2)oc2ccc(S(=O)(=O)N3CCC(C)CC3)cc12 [compound 129] and Cc1c(C(=O)NCCC2=CCCCC2)oc2ccc(S(=O)(=O)N3CCOCC3)cc12 [compound 197] cannot be ordered by IC50: 5 to 20 µM for the first, < 20 µM for the second.

First: CC1CCN(S(=O)(=O)c2ccc3[nH]c(CN4CCCCC4)cc3c2)CC1 [compound 11]
Second: CC1CC(C)CN(C(=O)c2cc3cc(S(=O)(=O)N4CCCCCC4)ccc3[nH]2)C1 (stereo not shown) [compound 17]
The IC50 of the first is lower: < 5 µM for the first, 5 to 20 µM for the second. The first is the more potent here.

First: CC1CC(C)CN(S(=O)(=O)c2ccc3[nH]c(C(=O)N4CCCC4)cc3c2)C1 (stereo not shown) [compound 143]
Second: Cc1c(C(=O)N2CCCCC2)oc2ccc(S(=O)(=O)N3CC(C)CC(C)C3)cc12 (stereo not shown) [compound 451]
The IC50 of the first is higher: 5 to 20 µM for the first, < 5 µM for the second.

Compared with CC1CCN(S(=O)(=O)c2ccc3oc(C(=O)NCC4CCOCC4)cc3c2)CC1 [compound 111], CC1CCN(S(=O)(=O)c2ccc3oc(C(=O)NC(C)C)cc3c2)CC1 [compound 234] is lower in IC50: 5 to 20 µM for the first, < 5 µM for the second.

First: Cc1c(C(=O)N2CC(C)CC(C)C2)oc2ccc(S(=O)(=O)N3CCCCC3)cc12 (stereo not shown) [compound 124]
Second: Cc1c(C(=O)N2CCCC(C)C2)oc2ccc(S(=O)(=O)N3CCCCCC3)cc12 (stereo not shown) [compound 102]
The IC50 of the first is higher: 5 to 20 µM for the first, < 5 µM for the second. The second is the more potent here.

First: Cc1c(C(=O)N2CCN(C)CC2)oc2ccc(S(=O)(=O)N3CCCC(C)C3)cc12 (stereo not shown) [compound 404]
Second: Cc1c(C(=O)N2CCC(C)CC2)oc2ccc(S(=O)(=O)N3CCCC(C)C3)cc12 (stereo not shown) [compound 376]
The IC50 of the first is higher: 5 to 20 µM for the first, < 5 µM for the second.

Cc1c(C(=O)NCC2CCOCC2)oc2ccc(S(=O)(=O)N3CC(C)CC(C)C3)cc12 (stereo not shown) [compound 242] and Cc1c(C(=O)NCC2CCCO2)oc2ccc(S(=O)(=O)N3CC(C)CC(C)C3)cc12 (stereo not shown) [compound 32] cannot be ordered by IC50: < 5 µM for the first, < 5 µM for the second.

CN(Cc1ccccc1)C(=O)c1cc2cc(S(=O)(=O)N3CCCCCC3)ccc2o1 [compound 43] and CC1CCN(S(=O)(=O)c2ccc3oc(C(=O)N(C)Cc4ccccc4)cc3c2)CC1 [compound 433] cannot be ordered by IC50: < 5 µM for the first, < 5 µM for the second.

First: CN(c1ccc2[nH]c(C(=O)NC3CC3)cc2c1)S(=O)(=O)c1ccccc1 [compound 312]
Second: O=C(NCCc1ccccc1)c1cc2cc(S(=O)(=O)N3CCCCCC3)ccc2[nH]1 [compound 248]
The IC50 of the first is higher: 5 to 20 µM for the first, < 5 µM for the second.

CC1CC(C)CN(S(=O)(=O)c2ccc3c(c2)cc(C(=O)N2CCN(C)CC2)n3S(=O)(=O)c2ccccc2)C1 (stereo not shown) [compound 419] and CC1CC(C)CN(S(=O)(=O)c2ccc3oc(C(=O)N4CCN(C)CC4)cc3c2)C1 (stereo not shown) [compound 82] fall in the same range of IC50: 5 to 20 µM for the first, 5 to 20 µM for the second.

Cc1c(C(=O)NCc2ccccc2)oc2ccc(S(=O)(=O)N3CCOCC3)cc12 [compound 267] and Cc1c(C(=O)NCc2ccccc2)oc2ccc(S(=O)(=O)N3CC(C)CC(C)C3)cc12 (stereo not shown) [compound 441] cannot be ordered by IC50: < 20 µM for the first, < 5 µM for the second.

First: Cc1c(C(=O)NCC2CCOCC2)oc2ccc(S(=O)(=O)N3CCCCCC3)cc12 [compound 38]
Second: Cc1c(C(=O)NC2CCCC2)oc2ccc(S(=O)(=O)N3CCCCC3)cc12 [compound 260]
The IC50 of the first is higher: 5 to 20 µM for the first, < 5 µM for the second.

Cc1c(C(=O)N2CCN(C)CC2)oc2ccc(S(=O)(=O)N3CCCCCC3)cc12 [compound 152] and Cc1c(C(=O)N2CCCCC2)oc2ccc(S(=O)(=O)N3CCCCCC3)cc12 [compound 468] fall in the same range of IC50: 5 to 20 µM for the first, 5 to 20 µM for the second.

Cc1c(C(=O)N2CCCCCC2)oc2ccc(S(=O)(=O)N3CCCCCC3)cc12 [compound 45] and Cc1c(C(=O)N2CCc3ccccc3C2)oc2ccc(S(=O)(=O)N3CCCCC3)cc12 [compound 462] cannot be ordered by IC50: < 5 µM for the first, < 5 µM for the second.

Cc1c(C(=O)NCCc2ccccc2)oc2ccc(S(=O)(=O)N3CC(C)CC(C)C3)cc12 (stereo not shown) [compound 393] and Cc1c(C(=O)NCCCc2ccccc2)oc2ccc(S(=O)(=O)N3CC(C)CC(C)C3)cc12 (stereo not shown) [compound 56] cannot be ordered by IC50: < 5 µM for the first, < 5 µM for the second.

Cc1c(C(=O)N(C(C)C)C(C)C)oc2ccc(S(=O)(=O)N3CCC(C)CC3)cc12 [compound 443] and Cc1c(C(N)=O)oc2ccc(S(=O)(=O)N3CCC(C)CC3)cc12 [compound 431] fall in the same range of IC50: 5 to 20 µM for the first, 5 to 20 µM for the second.

CC1CCN(S(=O)(=O)c2ccc3[nH]cc(C(=O)NC4CC4)c3c2)CC1 [compound 434] and Cc1c(C(=O)N2CCCCC2C)[nH]c2ccc(S(=O)(=O)N3CCC(C)CC3)cc12 (stereo not shown) [compound 239] cannot be ordered by IC50: < 20 µM for the first, 5 to 20 µM for the second.

CCCCN(C)C(=O)c1cc2cc(S(=O)(=O)N3CCCCCC3)ccc2[nH]1 [compound 422] and O=C(NCCCc1ccccc1)c1cc2cc(S(=O)(=O)N3CCCCCC3)ccc2[nH]1 [compound 5] cannot be ordered by IC50: < 5 µM for the first, < 5 µM for the second.

CNC(=O)c1oc2ccc(S(=O)(=O)N3CC(C)CC(C)C3)cc2c1C (stereo not shown) [compound 214] and CNC(=O)c1[nH]c2ccc(S(=O)(=O)N3CC(C)CC(C)C3)cc2c1C (stereo not shown) [compound 216] cannot be ordered by IC50: < 5 µM for the first, < 5 µM for the second.

First: CC1CCN(C(=O)c2cc3cc(S(=O)(=O)N4CCC(C)CC4)ccc3o2)CC1 [compound 273]
Second: CC1CCN(S(=O)(=O)c2ccc3oc(C(=O)N4CCCC(C)C4)cc3c2)CC1 (stereo not shown) [compound 417]
The IC50 of the first is lower: < 5 µM for the first, 5 to 20 µM for the second.

Cc1c(C(=O)N(C)Cc2ccccc2)oc2ccc(S(=O)(=O)N3CCC(C)CC3)cc12 [compound 464] and Cc1c(C(=O)NCCc2ccccc2)oc2ccc(S(=O)(=O)N3CCCC(C)C3)cc12 (stereo not shown) [compound 445] cannot be ordered by IC50: < 5 µM for the first, < 5 µM for the second.

Cc1c(C(=O)NC2CCCCC2)oc2ccc(S(=O)(=O)N3CC(C)CC(C)C3)cc12 (stereo not shown) [compound 62] and Cc1c(C(=O)NCCCN2CCCC2)oc2ccc(S(=O)(=O)N3CC(C)CC(C)C3)cc12 (stereo not shown) [compound 180] cannot be ordered by IC50: < 5 µM for the first, < 5 µM for the second.

Cc1c(C(=O)NC(C)C)oc2ccc(S(=O)(=O)N3CCCC(C)C3)cc12 (stereo not shown) [compound 47] and Cc1c(C(=O)NC2CC2)oc2ccc(S(=O)(=O)N3CCCC3)cc12 [compound 210] cannot be ordered by IC50: 5 to 20 µM for the first, < 20 µM for the second.

First: CCN(CC)C(=O)c1[nH]c2ccc(S(=O)(=O)N3CCC(C)CC3)cc2c1C [compound 168]
Second: Cc1c(C(=O)NCCc2ccccc2)[nH]c2ccc(S(=O)(=O)N3CCC(C)CC3)cc12 [compound 381]
The IC50 of the first is higher: 5 to 20 µM for the first, < 5 µM for the second.

CCCN(CC1CC1)C(=O)c1cc2cc(S(=O)(=O)N3CC(C)CC(C)C3)ccc2[nH]1 (stereo not shown) [compound 254] and CCN(CC)C(=O)c1cc2cc(S(=O)(=O)N3CC(C)CC(C)C3)ccc2n1CC(O)CN1CCN(C)CC1 (stereo not shown) [compound 191] cannot be ordered by IC50: < 5 µM for the first, < 5 µM for the second.

Cc1c(C(=O)NC2CC2)oc2ccc(S(=O)(=O)NCc3ccncc3)cc12 [compound 302] and Cc1c(C(=O)NC2CC2)oc2ccc(S(=O)(=O)NCCN3CCCCC3)cc12 [compound 25] cannot be ordered by IC50: < 20 µM for the first, < 20 µM for the second.

CC1CCN(S(=O)(=O)c2ccc3oc(C(=O)N4CC(C)CC(C)C4)cc3c2)CC1 (stereo not shown) [compound 293] and Cc1c(C(=O)NCCc2ccccc2)oc2ccc(S(=O)(=O)N3CCCCCC3)cc12 [compound 201] cannot be ordered by IC50: < 5 µM for the first, < 5 µM for the second.

CCN(CC)S(=O)(=O)c1ccc2oc(C(=O)NCCC3CCOCC3)c(C)c2c1 [compound 322] was tested, and the IC50 was < 20 µM.
